Test results taken from ChEMBL document CHEMBL1151826, “Sulfated steroids: ptilosteroids A-C and ptilosaponosides A and B from the Solomon Islands marine sponge Ptilocaulis spiculifer” (J Nat Prod, 2009).

System: KB
Assay: Cytotoxicity against human KB cells
Format: functional, cell-based

SMILES | Activity
C=CC1C(O)CC2C3CCC4C(O)C(O)C(OS(=O)(=O)O)CC4(C)C3CCC12C (stereo not given) | Not toxic
C=C[C@H]1CC[C@H]2[C@@H]3CC[C@H]4[C@@H](O[C@@H]5O[C@H](CO)[C@@H](O)[C@H](OS(=O)(=O)O)[C@H]5O)[C@@H](O)CC[C@]4(CO)[C@H]3CC[C@]12C | Not toxic
C=CC1CC(O)C2C3CCC4C(O)C(O)C(OS(=O)(=O)O)CC4(C)C3CCC12C (stereo not given) | Not toxic
C=CC1C(O)C(O)C2C3CCC4C(O)C(O)C(OS(=O)(=O)O)CC4(C)C3CCC12C (stereo not given) | Not toxic
C=C[C@H]1CC[C@H]2[C@@H]3CC[C@H]4[C@@H](O[C@@H]5O[C@H](CO)[C@@H](O)[C@H](OS(=O)(=O)O)[C@H]5O)[C@@H](OS(=O)(=O)O)CC[C@]4(CO)[C@H]3CC[C@]12C | Not toxic
